# Measured values as given in patent US20100113421A1, “NON-NUCLEOSIDE REVERSE TRANSCRIPTASE INHIBITORS” (priority 2006, published 2010).
# What was measured:
# [1] = test system: HIV strain containing the Y181C mutation; assay: Spread assay, Y181C mutant strain; format: cell-based; conditions: Human immunodeficiency virus 1; spread assay, 10% FBS, Y181C mutant strain; read-out: CIC95
# Procedure, shortened: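 Acute HIV-1 infection of T-lymphoid cells run in the presence of 10% FBS, […]; potency expressed as CIC95.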
# [2] = test system: mutant strain containing both the K103N and Y181C mutations; assay: Spread assay, mutant strain containing both K103N and Y181C; format: cell-based, HIV; conditions: Human immunodeficiency virus 1; analogous spread assay, K103N and Y181C double mutant strain; read-out: CIC95
# Method: Assays for the inhibition of acute HIV-1 infection of T-lymphoid cells (alternatively referred to herein as the “spread assay”) were conducted in accordance with Vacca, J. P. et al., Proc. Natl. Acad. Sci. USA 1994, 91: 4096. The assays (using 10% FBS) tested for inhibition of wild type HIV-1 and of HIV strains containing the Y181C or K103N mutation. […] (Note that the compound of Example 6 was tested only up to a 833 nM concentration and the CIC95 value was determined to be >833 nM. The compound of Example 78 was not tested in the Y1818C assay.) The compounds of Examples 1 to 119 (including Examples 70A and 70B) had CIC95 values of less than 1000 nanomolar in the assay employing the K103N mutant strain. In an analogous assay employing a mutant strain containing both the K103N and Y181C mutations, the compounds of Examples 70A, 70B and 78-115 had CIC95 values of less than 1000 nanomolar.
SMILES,IC95 [1] [µM],IC95 [2] [µM]
"COc1ccc2c(c1)CCCN(C(=O)c1[nH]c(C(N)=O)c(S(=O)(=O)c3cc(C)cc(C)c3)c1C)C2 [Example 87, 3-[(3,5-dimethylphenyl)sulfonyl]-4-methyl-5-(7-methoxy-1,3,4,5-tetrahydro-2H-2-benzazepin-2-ylcarbonyl)-1H-pyrrole-2-carboxamide]",< 8,< 1
"Cc1cc(C)cc(S(=O)(=O)c2c(C(N)=O)[nH]c(C(=O)N3CCCc4cc(O)ccc4C3)c2C)c1 [Example 88, 3-[(3,5-dimethylphenyl)sulfonyl]-4-methyl-5-(7-hydroxy-1,3,4,5-tetrahydro-2H-2-benzazepin-2-ylcarbonyl)-1H-pyrrole-2-carboxamide]",< 8,< 1
"COc1ccc2c(c1)CN(C(=O)c1[nH]c(C(N)=O)c(S(=O)(=O)c3cc(C)cc(C)c3)c1C)CCC2 [Example 89, 3-[(3,5-dimethylphenyl)sulfonyl]-4-methyl-5-(8-methoxy-1,3,4,5-tetrahydro-2H-2-benzazepin-2-ylcarbonyl)-1H-pyrrole-2-carboxamide]",< 8,< 1
"Cc1cc(C)cc(S(=O)(=O)c2c(C(N)=O)[nH]c(C(=O)N3CCCc4ccc(O)cc4C3)c2C)c1 [Example 90, 3-[(3,5-dimethylphenyl)sulfonyl]-4-methyl-5-(8-hydroxy-1,3,4,5-tetrahydro-2H-2-benzazepin-2-ylcarbonyl)-1H-pyrrole-2-carboxamide]",< 8,< 1
"COc1ccc2c(c1)CN(C(=O)c1[nH]c(C(N)=O)c(S(=O)(=O)c3ccccc3)c1C)CCC2 [Example 91, 3-(phenylsulfonyl)-4-methyl-5-(8-methoxy-1,3,4,5-tetrahydro-2H-2-benzazepin-2-ylcarbonyl)-1H-pyrrole-2-carboxamide]",< 8,< 1
"Cc1c(C(=O)N2CCCc3ccc(O)cc3C2)[nH]c(C(N)=O)c1S(=O)(=O)c1ccccc1 [Example 92, 3-(phenylsulfonyl)-4-methyl-5-(8-hydroxy-1,3,4,5-tetrahydro-2H-2-benzazepin-2-ylcarbonyl)-1H-pyrrole-2-carboxamide]",< 8,< 1
"COc1ccc2c(c1)CN(C(=O)c1[nH]c(C(N)=O)c(S(=O)(=O)c3cccc(F)c3)c1C)CCC2 [Example 93, 3-[(3-fluorophenyl)sulfonyl]-4-methyl-5-(8-methoxy-1,3,4,5-tetrahydro-2H-2-benzazepin-2-ylcarbonyl)-1H-pyrrole-2-carboxamide]",< 8,< 1
"Cc1c(C(=O)N2CCCc3ccc(O)cc3C2)[nH]c(C(N)=O)c1S(=O)(=O)c1cccc(F)c1 [Example 94, 3-[(3-fluorophenyl)sulfonyl]-4-methyl-5-(8-hydroxy-1,3,4,5-tetrahydro-2H-2-benzazepin-2-ylcarbonyl)-1H-pyrrole-2-carboxamide]",< 8,< 1
"COc1ccc2c(c1)CN(C(=O)c1[nH]c(C(N)=O)c(S(=O)(=O)c3cccc(C(F)(F)F)c3)c1C)CCC2 [Example 95, 3-[(3-(1,1,1-trifluoromethyl)phenyl)sulfonyl]-4-methyl-5-(8-methoxy-1,3,4,5-tetrahydro-2H-2-benzazepin-2-ylcarbonyl)-1H-pyrrole-2-carboxamide]",< 8,< 1
"Cc1c(C(=O)N2CCCc3sc(Cl)cc3C2)[nH]c(C(N)=O)c1S(=O)(=O)c1cc(Cl)cc(Cl)c1 [Example 96, 3-[(3,5-Dichlorophenyl)sulfonyl]-4-methyl-5-[(2-chloro-4,6,7,8-tetrahydro-5H-thieno[3,2-c]azepin-5-yl)carbonyl]-1H-pyrrole-2-carboxamide]",< 8,< 1
Cc1c(C(=O)N2CCCc3sc(S(C)(=O)=O)cc3C2)[nH]c(C(N)=O)c1S(=O)(=O)c1cc(Cl)cc(Cl)c1 [Example 97],< 8,< 1
"Cc1cc(C)cc(S(=O)(=O)c2c(C(N)=O)[nH]c(C(=O)N3CCCc4sc(S(C)(=O)=O)cc4C3)c2C)c1 [Example 98, 3-[(3,5-Dimethylphenyl)sulfonyl]-4-methyl-5-[(2-(methylsulfonyl)-4,6,7,8-tetrahydro-5H-thieno[3,2-c]azepin-5-yl)carbonyl]-1H-pyrrole-2-carboxamide]",< 8,< 1
"CC(C)c1c(C(=O)N(C)Cc2ccnc(N)c2)[nH]c(C(N)=O)c1S(=O)(=O)c1cccc(F)c1 [Example 99, N5-[(2-aminopyridin-4-yl)methyl]-3-[(3-fluorophenyl)sulfonyl]-4-isopropyl-N5-methyl-1H-pyrrole-2,5-dicarboxamide]",< 8,< 1
"CC(C)c1c(C(=O)N(C)Cc2ccnc(N)c2)[nH]c(C(N)=O)c1S(=O)(=O)c1cc(F)cc(F)c1 [Example 100, N5-[(2-aminopyridin-4-yl)methyl]-3-[(3,5-difluorophenyl)sulfonyl]-4-isopropyl-N5-methyl-1H-pyrrole-2,5-dicarboxamide]",< 8,< 1
CC(C)c1c(C(=O)N(C)Cc2ccnc(N)c2)[nH]c(C(N)=O)c1S(=O)(=O)c1ccccc1 [Example 101],< 8,< 1
"Cc1cc(C)cc(S(=O)(=O)c2c(C(N)=O)[nH]c(C(=O)N(C)Cc3ccnc(N)c3)c2C(C)C)c1 [Example 102, N5-[(2-aminopyridin-4-yl)methyl]-3-[(3,5-dimethylphenyl)sulfonyl]-4-isopropyl-N5-methyl-1H-pyrrole-2,5-dicarboxamide]",< 8,< 1
"Cc1cc(C)cc(S(=O)(=O)c2c(C(N)=O)[nH]c(C(=O)N(C)Cc3cc(N)ncc3F)c2C)c1 [Example 103, N5-[(2-amino-5-fluoropyridin-4-yl)methyl]-3-[(3,5-dimethylphenyl)sulfonyl]-N5,4-dimethyl-1H-pyrrole-2,5-dicarboxamide]",< 8,< 1
CC(C)c1c(C(=O)N(C)Cc2cc(N)ncc2F)[nH]c(C(N)=O)c1S(=O)(=O)c1ccccc1 [Example 104],< 8,< 1
"Cc1cc(C)cc(S(=O)(=O)c2c(C(N)=O)[nH]c(C(=O)N(C)Cc3ccncc3Cl)c2C)c1 [Example 105, N5-[(3-chloropyridin-4-yl)methyl]-3-[(3,5-dimethylphenyl)sulfonyl]-N5,4-dimethyl-1H-pyrrole-2,5-dicarboxamide]",< 8,< 1
"CC(C)c1c(C(=O)N(C)Cc2ccncc2Cl)[nH]c(C(N)=O)c1S(=O)(=O)c1ccccc1 [Example 106, N2-[(3-chloropyridin-4-yl)methyl]-3-isopropyl-N2-methyl-4-(phenylsulfonyl)-1H-pyrrole-2,5-dicarboxamide]",< 8,< 1
"Cc1cc(C)cc(S(=O)(=O)c2c(C(N)=O)[nH]c(C(=O)N(C)Cc3ccnc(Cl)c3F)c2C)c1 [Example 107, N5-[(2-chloro-3-fluoropyridin-4-yl)methyl]-3-[(3,5-dimethylphenyl)sulfonyl]-N5,4-dimethyl-1H-pyrrole-2,5-dicarboxamide]",< 8,< 1
"CC(C)c1c(C(=O)N(C)Cc2ccnc(Cl)c2F)[nH]c(C(N)=O)c1S(=O)(=O)c1ccccc1 [Example 108, N2-[(2-chloro-3-fluoropyridin-4-yl)methyl]-3-isopropyl-N2-methyl-4-(phenylsulfonyl)-1H-pyrrole-2,5-dicarboxamide]",< 8,< 1
"Cc1cc(C)cc(S(=O)(=O)c2c(C(N)=O)[nH]c(C(=O)N(C)Cc3ccncc3F)c2C)c1 [Example 109, 3-[(3,5-dimethylphenyl)sulfonyl]-N5-[(3-fluoropyridin-4-yl)methyl]-N5,4-dimethyl-1H-pyrrole-2,5-dicarboxamide]",< 8,< 1
"CC(C)c1c(C(=O)N(C)Cc2ccncc2F)[nH]c(C(N)=O)c1S(=O)(=O)c1ccccc1 [Example 110, N2-[(3-fluoropyridin-4-yl)methyl]-3-isopropyl-N2-methyl-4-(phenylsulfonyl)-1H-pyrrole-2,5-dicarboxamide]",< 8,< 1
"Cc1cc(C)cc(S(=O)(=O)c2c(C(N)=O)[nH]c(C(=O)N(C)Cc3c(F)cncc3F)c2C)c1 [Example 111, N5-[(3,5-difluoropyridin-4-yl)methyl]-3-[(3,5-dimethylphenyl)sulfonyl]-N5,4-dimethyl-1H-pyrrole-2,5-dicarboxamide]",< 8,< 1
"CC(C)c1c(C(=O)N(C)Cc2c(F)cncc2F)[nH]c(C(N)=O)c1S(=O)(=O)c1ccccc1 [Example 112, N2-[(3,5-difluoropyridin-4-yl)methyl]-3-isopropyl-N2-methyl-4-(phenylsulfonyl)-1H-pyrrole-2,5-dicarboxamide]",< 8,< 1
"Cc1cc(C)cc(S(=O)(=O)c2c(C(N)=O)[nH]c(C(=O)N(C)Cc3cc(Cl)ncc3F)c2C)c1 [Example 113, N5-[(2-chloro-5-fluoropyridin-4-yl)methyl]-3-[(3,5-dimethylphenyl)sulfonyl]-N5,4-dimethyl-1H-pyrrole-2,5-dicarboxamide]",< 8,< 1
"CC(C)c1c(C(=O)N(C)Cc2cc(Cl)ncc2F)[nH]c(C(N)=O)c1S(=O)(=O)c1ccccc1 [Example 114, N2-[(2-chloro-5-fluoropyridin-4-yl)methyl]-3-isopropyl-N2-methyl-4-(phenylsulfonyl)-1H-pyrrole-2,5-dicarboxamide]",< 8,< 1
